According to patent publication US20220395458A1, “PREVENTION OF VISIBLE PARTICLE FORMATION IN AQUEOUS PROTEIN SOLUTIONS” (Hoffmann-La Roche Inc., priority 2019, published 2022):
In brackets after ≈: the same amount, converted by molar mass.

Experiments:
[1] = Visible particles (Seidenader) after spiking FFA to glass leachable solutions; format: physicochemical; set-up: key to Visible particles: relative ranking to each other from less to most particle fromation (+, ++, +++); relative ranking to each other from less to most particle fromation (+, ++, +++); relative ranking to each other from less to most particle fromation (+, ++, +++); conditions: for Visible particles d0: d0 directly after spiking; for Visible particles: FFA below solubility limit, up to 7 days, triplicates
Experimental: (§1) Aqueous stock solutions were prepared in 0.02% PS20 (Croda. Edison, N.J., USA) at defined concentrations of (1) 5 mg/mL and (2) 12.5 mg/mL (lauric acid. Sigma-Aldrich/Merck. Darmstadt. Del.) or (1) 1.5 mg/mL and (2) 5 mg/mL (myristic acid, Sigma-Aldrich/Merck. Darmstadt. Del.) as previously described by Doshi et al.^6 The procedure was adapted that the FFA/PS20 stock solution was sterile filtered using 0.22 μm PVDF Steriflip filters (Merck Millipore. Darmstadt. Del.) before 1:10 dilution and subsequently homogenized without a magnetic stirrer using a Heidolph Rotamax 120 orbital shaker (Schwabach. Del.) at 100 rpm at 25° C., for 1 hour. After 1:500 dilution, the solution was homogenized for 1 hour at 25° C., before homogenization at 2-8° C., overnight, 12-40 μL of stock solution were used for spiking experiments yielding final FFA concentrations of (1) 10 μg/mL and (2) 25 μg/mL (lauric acid) or (1) 3 μg/mL and (2) 10 μg/mL (myristic acid). Dilutions with stock solutions 1 yield FFA concentration below their solubility limit, whereas stock solutions 2 act as positive control confirmed by the formation of visible particles. FFA concentrations were verified for selected by LC-MS samples acc. Honemann et al.^7
Representative mixtures of glass leachables were obtained from three different types of glass vials, e.g. Exp 33 and Exp51 (Schott A G, Müllheim, D E, and Schott North America Inc., N.Y. USA) in the 6 mL format, by three autoclavation cycles (121° C., 20 min) representing accelerate aging conditions. Vials were filled with 6 mL of either water for injection (WFI), 20 mM glycine solution pH 10 or a typical placebo solution used for protein formulations consisting of 20 mM Histidine/Histdine-HCl buffer pH 6.0, 10 mM Methionine, 240 mM sucrose (Ferro Pfanstiehl. Waukegan. Ill. USA), and 0.02% PS20. The pH of the glycine solutions was adapted after autoclavation with HCl to pH 6.0 and filtered through a 0.22 μm PVDF Sterivex filters (Merck Millipore. Darmstadt. Del.) Leachable concentrations were verified ICP-MS (Table 1) as described by Ditter et al.^8 Spiking experiments with FFA were performed in triplicates,
(§2) Samples were analyzed by visual inspection on a Seidenader V 90-T instrument (Seidenader Maschinenbau GmbH. Markt Schwaben. Del.) as previously described by Ditter et al.^9 and using a black/white panel according Ph. Eur. 2.9.20.^10 and classified as Many particles (>7). Few particles (4-7), or Practically free of particles (0-4) in E/P box, and Many particles (>10). Few particles (6-10). Essentially free of particles (1-5), or Free of particles (0) by Seidenader.
(§3) pH of all solutions was verified. Samples were visually inspected immediately after spiking and regularly for up to 7 days. Further characterization by HIAC, turbidity, FTIR, and SEM-EDX was performed on day 1 only. All samples were analyzed when equilibrated to room temperature (4 h).
Glass leachables were generated from different types of glass vials, e.g. Exp33 and Exp51 vials, with different matrix solutions including WFI, a glycine solution adjusted to pH 6, and a placebo solution representative for a mAb formulation. Defined amounts of myristic and lauric acid below their solubility limit were added to the solutions/mixtures of glass leachables and analyzed. Visible particles in Seidenader are summarized in Table 3 and were detected for all samples in contrast to various controls. Particle formation was dependent on the glass leachable solution and dependent on incubation time. […] An example for the dependency of particle formation on incubation time is provided in Table 3 for myristic acid in glass leachable solution from Exp51 vials/glycine solution. The example highlights the kinetics of particle formation with no particles directly after spiking and more than 10 particles at incubation day 5 and 7. For selected samples, particles were further characterized and identified by FTIR confirming the presence of free fatty acids. […]

[2] = in water at room temperature; cited from earlier work
[3] = Visible particles in E/P box (Ph. Eur. 2.9.20) after spiking FFA to inorganic salt solutions; format: physicochemical; conditions: FFA below solubility limit; for Visible particles E/P d0: d0 directly after spiking
Experimental: as §1
Aqueous stock solutions of different salts were prepared at 1 mg/mL and used for spiking experiments to final concentrations between […]. NaCl, NaAlO2. NaBO2. B2O3, and CaCl2 (Sigma-Aldrich/Merck. Darmstadt. Del.) were selected as their dissolution products (ions) represent typical glass leachables from Type I borosilicate glass. The pH of the NaAlO2 and NaBO2 stock solutions was adjusted to pH 6 using HCl and subsequently filtered using 0.22 μm PVDF Sterivex filters (Merck Millipore. Darmstadt. Del.) and true elemental concentrations were determined by inductively-coupled plasma mass spectrometry (ICP-MS). Elemental concentrations were 0,048 μg/mL Aluminium and 295 μg/mL sodium and 78 μg/mL boron and 168 μg/mL, respectively. Spiking experiments with FFA were performed in duplicates.
as §2, §3
Different inorganic salt solutions, i.e. CaCl2. NaAlO2. NaBO2. B2O3, and NaCl, were prepared simulating artificial glass leachables. Myristic and lauric acid, as main degradation product from hydrolytic PS20 degradation, were added at concentrations below their solubility limit and samples were analyzed for visible particles. SVP, and turbidity. Samples were compared against relevant controls and the pH verified at pH 6.

[4] = Exp51 vials, 3xTS Glycine pH 6, samples 1-3
[5] = Exp51 vials, 3xTS Glycine pH 6, samples 1-3, listed as myristic acid
[6] = glass leachable solution Exp33 vials, 3xTS Placebo
[7] = glass leachable solution Exp33 vials, 3xTS WFI
[8] = glass leachable solution Exp51 vials, 3xTS Glycine pH 6
[9] = glass leachable solution Exp51 vials, 3xTS Placebo
[10] = glass leachable solution Exp51 vials, 3xTS WFI
[11] = CaCl2 250 μg/mL (Ca2+ 90 μg/mL)
[12] = CaCl2 500 μg/mL (Ca2+ 180 μg/mL)
[13] = CaCl2 1000 μg/mL (Ca2+ 360 μg/mL)
[14] = NaAlO2 nominal 250 μg/mL (0.012 μg/mL ion)
[15] = NaAlO2 nominal 500 μg/mL (0.024 μg/mL ion)
[16] = NaAlO2 nominal 1000 μg/mL (0.048 μg/mL ion)

SMILES	Visible particles [1, 6]	Visible particles [1, 7]	Visible particles [1, 8]	Visible particles [1, 9]	Visible particles [1, 10]	solubility level [2] [µg/mL]	Visible particles E/P d0 [3, 11]	Visible particles E/P d2 [3, 11]	Visible particles E/P d7 [3, 11]	Visible particles E/P d0 [3, 12]	Visible particles E/P d7 [3, 12]	Visible particles E/P d0 [3, 13]	Visible particles E/P d2 [3, 13]	Visible particles E/P d7 [3, 13]	Visible particles E/P d0 [3, 14]	Visible particles E/P d1 [3, 14]	Visible particles E/P d2 [3, 14]	Visible particles E/P d7 [3, 14]	Visible particles E/P d0 [3, 15]	Visible particles E/P d1 [3, 15]	further results
CCCCCCCCCCCCCC(=O)O [Myristic acid, myristic acid]	+	+	+++	+	+	7 (≈ 30.7 µM)	/ (Practically free of particles (0-4, /) in E/P box)	/ (Practically free of particles (0-4, /) in E/P box)	xxx (Many particles (>7, xxx))	/ (Practically free of particles (0-4, /) in E/P box)	xxx (Many particles (>7, xxx))	/ (Practically free of particles (0-4, /) in E/P box)	xxx (Many particles (>7, xxx))	xxx (Many particles (>7, xxx))	/ (Practically free of particles (0-4, /) in E/P box)	/ (Practically free of particles (0-4, /) in E/P box)	/ (Practically free of particles (0-4, /) in E/P box)	/ (Practically free of particles (0-4, /) in E/P box)	/ (Practically free of particles (0-4, /) in E/P box)	/ (Practically free of particles (0-4, /) in E/P box)	Visible particles d0 [1, 4]: 1-5 particles; Visible particles d0 [1, 5]: no particles; Visible particles d1 ([1]; Exp51 vials, 3xTS Glycine pH 6, d1, samples 1-3): 1-5 particles; Visible particles d5/7 [1, 4]: >10 particles; Visible particles d5/7 [1, 5]: more than 10 particles; Visible particles ([1]; glass leachable solution Exp33 vials, 3xTS Glycine pH 6): +; Visible particles E/P d1 [3, 11]: / (Practically free of particles (0-4, /) in E/P box); Visible particles E/P d1 [3, 12]: xx (Few particles (4-7, xx)); Visible particles E/P d1 [3, 13]: xxx (Many particles (>7, xxx)); Visible particles E/P d2 [3, 15]: / (Practically free of particles (0-4, /) in E/P box); Visible particles E/P d0 [3, 16]: / (Practically free of particles (0-4, /) in E/P box); Visible particles E/P d1 [3, 16]: / (Practically free of particles (0-4, /) in E/P box); Visible particles E/P d7 [3, 16]: xxx (Many particles (>7, xxx))
CCCCCCCCCCCC(=O)O [Lauric acid, lauric acid]	+++	+	++	+++	++	15 (≈ 74.9 µM)	/ (Practically free of particles (0-4, /) in E/P box)	/ (Practically free of particles (0-4, /) in E/P box)	/ (Practically free of particles (0-4, /) in E/P box)	/ (Practically free of particles (0-4, /) in E/P box)	/ (Practically free of particles (0-4, /) in E/P box)	/ (Practically free of particles (0-4, /) in E/P box)	xx (Few particles (4-7, xx))	/ (Practically free of particles (0-4, /) in E/P box)	/ (Practically free of particles (0-4, /) in E/P box)	/ (Practically free of particles (0-4, /) in E/P box)	/ (Practically free of particles (0-4, /) in E/P box)	/ (Practically free of particles (0-4, /) in E/P box)	/ (Practically free of particles (0-4, /) in E/P box)	/ (Practically free of particles (0-4, /) in E/P box)	Visible particles E/P d2 [3, 12]: / (Practically free of particles (0-4, /) in E/P box); Visible particles E/P d2 [3, 15]: / (Practically free of particles (0-4, /) in E/P box); Visible particles E/P d7 [3, 15]: / (Practically free of particles (0-4, /) in E/P box); Visible particles E/P d0 [3, 16]: / (Practically free of particles (0-4, /) in E/P box); Visible particles E/P d1 [3, 16]: / (Practically free of particles (0-4, /) in E/P box); Visible particles E/P d2 [3, 16]: / (Practically free of particles (0-4, /) in E/P box); Visible particles E/P d7 [3, 16]: / (Practically free of particles (0-4, /) in E/P box)
